PubChem BioAssay (NCI)
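Dose response: 5 concentrations. Exposure: 48 h. Format: 96-well plates. Endpoint: linear interpolation; highest concentration if not reached. The concentration for full growth arrest is given as TGI.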

Legend:
Assay in all cases: NCI anticancer screen, dose series, 48 h
SF-539 CNS = tested on: SF-539 CNS
KM12 colon = tested on: KM12 colon
HOP-92 NSCLC = tested on: HOP-92 NSCLC
K-562 leukemia = tested on: K-562 leukemia
HS 578T breast = tested on: HS 578T breast
T-47D breast = tested on: T-47D breast
SF-295 CNS = tested on: SF-295 CNS
NCI/ADR-RES ovarian = tested on: NCI/ADR-RES ovarian
SW-620 colon = tested on: SW-620 colon
A498 renal = tested on: A498 renal
HCT-15 colon = tested on: HCT-15 colon
COLO 205 colon = tested on: COLO 205 colon
ACHN renal = tested on: ACHN renal
MDA-N = tested on: MDA-N
UO-31 renal = tested on: UO-31 renal
MCF7 breast = tested on: MCF7 breast
OVCAR-4 ovarian = tested on: OVCAR-4 ovarian
CAKI-1 renal = tested on: CAKI-1 renal
786-0 renal = tested on: 786-0 renal
NCI-H460 lung = tested on: NCI-H460 lung
DU-145 prostate = tested on: DU-145 prostate
CCRF-CEM leukemia = tested on: CCRF-CEM leukemia
BT-549 breast = tested on: BT-549 breast
HT29 colon = tested on: HT29 colon
OVCAR-3 ovarian = tested on: OVCAR-3 ovarian
A549 NSCLC = tested on: A549 NSCLC
MALME-3M melanoma = tested on: MALME-3M melanoma
SK-MEL-2 melanoma = tested on: SK-MEL-2 melanoma
SNB-19 CNS = tested on: SNB-19 CNS
HCT-116 colon = tested on: HCT-116 colon
UACC-257 melanoma = tested on: UACC-257 melanoma
HL-60(TB) leukemia = tested on: HL-60(TB) leukemia
NCI-H23 lung = tested on: NCI-H23 lung
PC-3 prostate = tested on: PC-3 prostate
IGROV1 ovarian = tested on: IGROV1 ovarian
TK-10 renal = tested on: TK-10 renal
MDA-MB-231 breast = tested on: MDA-MB-231 breast
RPMI-8226 leukemia = tested on: RPMI-8226 leukemia
NCI-H522 lung = tested on: NCI-H522 lung
U251 CNS = tested on: U251 CNS
SK-OV-3 ovarian = tested on: SK-OV-3 ovarian
NCI-H226 lung = tested on: NCI-H226 lung
SNB-75 CNS = tested on: SNB-75 CNS
UACC-62 melanoma = tested on: UACC-62 melanoma
SF-268 CNS = tested on: SF-268 CNS
MDA-MB-435 = tested on: MDA-MB-435
SK-MEL-5 melanoma = tested on: SK-MEL-5 melanoma
M14 melanoma = tested on: M14 melanoma
LOX IMVI melanoma = tested on: LOX IMVI melanoma
OVCAR-5 ovarian = tested on: OVCAR-5 ovarian
MOLT-4 leukemia = tested on: MOLT-4 leukemia
EKVX NSCLC = tested on: EKVX NSCLC
HCC-2998 colon = tested on: HCC-2998 colon
OVCAR-8 ovarian = tested on: OVCAR-8 ovarian
SN12C renal = tested on: SN12C renal
SR leukemia = tested on: SR leukemia
SK-MEL-28 melanoma = tested on: SK-MEL-28 melanoma
HOP-62 NSCLC = tested on: HOP-62 NSCLC
RXF 393 renal = tested on: RXF 393 renal

C/C1=C/C2=CC(C)C[C@@H]2C(=O)[C@]2(C)C(=O)CC(C)(C)[C@H]2CC1=O (stereo partly specified)
TGI (SF-539 CNS): > 50 µM | TGI (KM12 colon): > 50 µM | TGI (HOP-92 NSCLC): > 50 µM | TGI (K-562 leukemia): > 50 µM | TGI (HS 578T breast): > 50 µM | TGI (T-47D breast): > 50 µM | TGI (SF-295 CNS): > 50 µM | TGI (NCI/ADR-RES ovarian): > 50 µM | TGI (SW-620 colon): > 50 µM | TGI (A498 renal): > 50 µM | TGI (HCT-15 colon): > 50 µM | TGI (COLO 205 colon): > 50 µM | TGI (ACHN renal): > 50 µM | TGI (MDA-N): > 50 µM | TGI (UO-31 renal): > 50 µM | TGI (MCF7 breast): > 50 µM | TGI (OVCAR-4 ovarian): > 50 µM | TGI (CAKI-1 renal): > 50 µM | TGI (786-0 renal): > 50 µM | TGI (NCI-H460 lung): > 50 µM | TGI (DU-145 prostate): > 50 µM | TGI (CCRF-CEM leukemia): > 50 µM | TGI (BT-549 breast): > 50 µM | TGI (HT29 colon): > 50 µM | TGI (OVCAR-3 ovarian): > 50 µM | TGI (A549 NSCLC): > 50 µM | TGI (MALME-3M melanoma): > 50 µM | TGI (SK-MEL-2 melanoma): > 50 µM | TGI (SNB-19 CNS): > 50 µM | TGI (HCT-116 colon): > 50 µM | TGI (UACC-257 melanoma): > 50 µM | TGI (HL-60(TB) leukemia): > 50 µM | TGI (NCI-H23 lung): > 50 µM | TGI (PC-3 prostate): > 50 µM | TGI (IGROV1 ovarian): > 50 µM | TGI (TK-10 renal): > 50 µM | TGI (MDA-MB-231 breast): > 50 µM | TGI (RPMI-8226 leukemia): > 50 µM | TGI (NCI-H522 lung): > 50 µM | TGI (U251 CNS): > 50 µM | TGI (SK-OV-3 ovarian): > 50 µM | TGI (NCI-H226 lung): > 50 µM | TGI (SNB-75 CNS): > 50 µM | TGI (UACC-62 melanoma): > 50 µM | TGI (SF-268 CNS): > 50 µM | TGI (MDA-MB-435): > 50 µM | TGI (SK-MEL-5 melanoma): > 50 µM | TGI (M14 melanoma): > 50 µM | TGI (LOX IMVI melanoma): > 50 µM | TGI (OVCAR-5 ovarian): > 50 µM | TGI (MOLT-4 leukemia): > 50 µM | TGI (EKVX NSCLC): > 50 µM | TGI (HCC-2998 colon): > 50 µM | TGI (OVCAR-8 ovarian): > 50 µM | TGI (SN12C renal): > 50 µM

O=[N+]([O-])c1ccc2c(c1)Nc1c3ccccc3nc3cccc-2c13
TGI (SR leukemia): 8.91 µM | TGI (SF-539 CNS): 44.3 µM | TGI (KM12 colon): > 100 µM | TGI (HOP-92 NSCLC): 18.8 µM | TGI (K-562 leukemia): > 19.7 µM | TGI (HS 578T breast): > 100 µM | TGI (T-47D breast): 43.2 µM | TGI (SF-295 CNS): 6.98 µM | TGI (NCI/ADR-RES ovarian): 17.1 µM | TGI (SW-620 colon): 15.8 µM | TGI (A498 renal): > 100 µM | TGI (HCT-15 colon): 81.2 µM | TGI (COLO 205 colon): 19.8 µM | TGI (ACHN renal): > 60.5 µM | TGI (MDA-N): 15.2 µM | TGI (UO-31 renal): 28.9 µM | TGI (OVCAR-4 ovarian): 11.4 µM | TGI (CAKI-1 renal): 18.8 µM | TGI (786-0 renal): 7.36 µM | TGI (NCI-H460 lung): 12.5 µM | TGI (DU-145 prostate): 9.43 µM | TGI (CCRF-CEM leukemia): 6.19 µM | TGI (BT-549 breast): 29.8 µM | TGI (HT29 colon): > 51.6 µM | TGI (OVCAR-3 ovarian): 3.8 µM | TGI (A549 NSCLC): 15.9 µM | TGI (MALME-3M melanoma): 19.4 µM | TGI (SK-MEL-2 melanoma): 39.5 µM | TGI (SNB-19 CNS): 47.6 µM | TGI (HCT-116 colon): 28.8 µM | TGI (UACC-257 melanoma): 47.9 µM | TGI (HL-60(TB) leukemia): > 23.1 µM | TGI (NCI-H23 lung): > 55.1 µM | TGI (PC-3 prostate): 16.9 µM | TGI (IGROV1 ovarian): 15.4 µM | TGI (TK-10 renal): 17.3 µM | TGI (MDA-MB-231 breast): > 25.4 µM | TGI (RPMI-8226 leukemia): > 39 µM | TGI (SK-MEL-28 melanoma): 24.8 µM | TGI (NCI-H522 lung): 33.2 µM | TGI (U251 CNS): 18.6 µM | TGI (SK-OV-3 ovarian): 8.41 µM | TGI (NCI-H226 lung): > 93.6 µM | TGI (SNB-75 CNS): 11.7 µM | TGI (UACC-62 melanoma): 18.1 µM | TGI (HOP-62 NSCLC): 7.7 µM | TGI (SF-268 CNS): 40.5 µM | TGI (MDA-MB-435): 36 µM | TGI (SK-MEL-5 melanoma): 5.51 µM | TGI (M14 melanoma): 16.9 µM | TGI (LOX IMVI melanoma): 6.67 µM | TGI (OVCAR-5 ovarian): 20.5 µM | TGI (RXF 393 renal): 32.9 µM | TGI (MOLT-4 leukemia): 34.6 µM | TGI (EKVX NSCLC): 48.7 µM | TGI (HCC-2998 colon): 0.341 µM | TGI (OVCAR-8 ovarian): 40.4 µM | TGI (SN12C renal): > 80 µM

Cc1ccc(C)c(NC(=O)NCc2ccc(Cl)cc2)c1
TGI (SR leukemia): 27.8 µM | TGI (SF-539 CNS): > 100 µM | TGI (KM12 colon): > 100 µM | TGI (HOP-92 NSCLC): 63.5 µM | TGI (K-562 leukemia): 98.6 µM | TGI (HS 578T breast): > 100 µM | TGI (T-47D breast): > 100 µM | TGI (SF-295 CNS): > 100 µM | TGI (NCI/ADR-RES ovarian): > 100 µM | TGI (SW-620 colon): > 100 µM | TGI (A498 renal): 88.4 µM | TGI (HCT-15 colon): > 100 µM | TGI (COLO 205 colon): > 100 µM | TGI (ACHN renal): > 90.7 µM | TGI (MDA-N): > 100 µM | TGI (UO-31 renal): > 100 µM | TGI (MCF7 breast): > 100 µM | TGI (OVCAR-4 ovarian): > 100 µM | TGI (CAKI-1 renal): > 100 µM | TGI (786-0 renal): > 90.3 µM | TGI (NCI-H460 lung): > 100 µM | TGI (DU-145 prostate): > 100 µM | TGI (CCRF-CEM leukemia): > 27.6 µM | TGI (BT-549 breast): > 100 µM | TGI (HT29 colon): > 100 µM | TGI (OVCAR-3 ovarian): > 100 µM | TGI (A549 NSCLC): > 100 µM | TGI (MALME-3M melanoma): > 87.9 µM | TGI (SK-MEL-2 melanoma): > 100 µM | TGI (SNB-19 CNS): > 58.5 µM | TGI (HCT-116 colon): > 100 µM | TGI (UACC-257 melanoma): > 100 µM | TGI (HL-60(TB) leukemia): > 100 µM | TGI (NCI-H23 lung): > 100 µM | TGI (PC-3 prostate): > 100 µM | TGI (IGROV1 ovarian): > 100 µM | TGI (TK-10 renal): 69.8 µM | TGI (MDA-MB-231 breast): > 92 µM | TGI (RPMI-8226 leukemia): > 100 µM | TGI (SK-MEL-28 melanoma): > 100 µM | TGI (NCI-H522 lung): 97.3 µM | TGI (U251 CNS): > 100 µM | TGI (SK-OV-3 ovarian): 52.7 µM | TGI (NCI-H226 lung): 98.8 µM | TGI (SNB-75 CNS): 6.26 µM | TGI (UACC-62 melanoma): > 100 µM | TGI (HOP-62 NSCLC): 37 µM | TGI (SF-268 CNS): > 100 µM | TGI (MDA-MB-435): > 100 µM | TGI (SK-MEL-5 melanoma): > 100 µM | TGI (M14 melanoma): > 100 µM | TGI (LOX IMVI melanoma): > 100 µM | TGI (OVCAR-5 ovarian): > 100 µM | TGI (RXF 393 renal): 28.6 µM | TGI (MOLT-4 leukemia): > 36.2 µM | TGI (EKVX NSCLC): > 100 µM | TGI (OVCAR-8 ovarian): > 100 µM | TGI (SN12C renal): > 100 µM
